The source of these data is ChEMBL document CHEMBL4513134, “CO-ADD screening of University of Queensland (Australia) compounds” (2021).

The subject of one experiment is Pseudomonas aeruginosa. Particulars: ATCC 27853, Concentration 32.0 ug.mL-1.
The subject of the next experiment is Acinetobacter baumannii. In words: Antibacterial activity against Acinetobacter baumannii ATCC 19606 (CO-ADD:GN_034); MIC in CAMBH media using NBS plates, by OD600. Particulars: Concentration 32.0 ug.mL-1.
In another experiment the test system is Staphylococcus aureus. In words: Antibacterial activity against Staphylococcus aureus MRSA ATCC 43300 (CO-ADD:GP_020); MIC in CAMBH media, using NBS plates, by OD(600). Particulars: Concentration 32.0 ug.mL-1.
The subject of the next experiment is Klebsiella pneumoniae. Particulars: ATCC 700603, Concentration 32.0 ug.mL-1.
The test system of a further experiment is Escherichia coli. In words: Antibacterial activity against Escherichia coli ATCC 25922 (CO-ADD:GN_001); MIC in CAMBH media using NBS plates, by OD(600). Particulars: Concentration 32.0 ug.mL-1.
A further experiment has as its system HEK293. In words: cells. It is filed as functional, Homo sapiens, ATCC CRL1573. Particulars: ASSAY_TEST Inhibition of Cell Viability; detection method Resazurin; Fluorescence (ex560/em590); MEDIA DMEM with 10% FBS; plate type 384well; TC; CORNING #3712; time 18 hr.

A value given as a limit tells only on which side of the number the result lay.

Description for Klebsiella pneumoniae: Antibacterial activity against Klebsiella pneumoniae MDR ATCC 70063 (CO-ADD:GN_003); MIC in CAMBH media using NBS plates, by OD(600)
Description for Pseudomonas aeruginosa: Antibacterial activity against Pseudomonas aeruginosa ATCC 27853 (CO-ADD:GN_042); MIC in CAMBH media using NBS plates, by OD(600)

Consider `NC(=O)c1nc([N+](=O)[O-])cn1Cc1ccc(C(F)(F)F)cc1`, for which the inhibition result with Pseudomonas aeruginosa, with Acinetobacter baumannii, in the experiment on Staphylococcus aureus, in the experiment with Klebsiella pneumoniae and with Escherichia coli was “Average; N=2” throughout.

As for `Cc1cn2cc([N+](=O)[O-])nc2c(=O)n1CCO`, the CC50 with HEK293 is recorded as more than 100.

With `NC(=O)c1nc([N+](=O)[O-])cn1Cc1cccc(OC(F)(F)F)c1`, the inhibition entry in the experiment on Pseudomonas aeruginosa, in the experiment with Acinetobacter baumannii, in the experiment with Staphylococcus aureus, with Klebsiella pneumoniae and in the experiment with Escherichia coli was “Average; N=2” in each case.

In the case of `NC(=O)c1nc([N+](=O)[O-])cn1Cc1ccc(F)cc1`, the inhibition result in the experiment on Pseudomonas aeruginosa, in the experiment on Acinetobacter baumannii, with Staphylococcus aureus, in the experiment on Klebsiella pneumoniae and in the experiment on Escherichia coli was “Average; N=2” throughout.

In the experiment on HEK293, `COc1nc(C)cn2cc([N+](=O)[O-])nc12` returned a CC50 of more than 50.

Turning to `CN(C)C(=O)c1ncc([N+](=O)[O-])[nH]1`, the inhibition result in the experiment with Pseudomonas aeruginosa, in the experiment with Acinetobacter baumannii, in the experiment on Staphylococcus aureus, in the experiment on Klebsiella pneumoniae and in the experiment with Escherichia coli was “Average; N=2” throughout.

In the experiment on HEK293, `Cc1cn2cc([N+](=O)[O-])nc2c(OCCO)n1` gave a CC50 of more than 100.

In the experiment on HEK293, `NNC(=O)c1nc([N+](=O)[O-])cn1Cc1ccc(OC(F)(F)F)cc1` had a CC50 of more than 100.

For `Cc1cn2cc([N+](=O)[O-])nc2c(=O)n1Cc1ccc(OC(F)(F)F)cc1`, the CC50 in the experiment on HEK293 is on record as more than 100.

With `Nc1c[nH]c(C(=O)NCc2ccc(F)cc2)n1`, the inhibition entry in the experiment with Pseudomonas aeruginosa, in the experiment on Acinetobacter baumannii, in the experiment with Staphylococcus aureus, with Klebsiella pneumoniae and in the experiment on Escherichia coli was “Average; N=2” each time.

Turning to `CC(=O)OCCn1cc([N+](=O)[O-])nc1C(N)=O`, the inhibition entry in the experiment with Pseudomonas aeruginosa, in the experiment with Acinetobacter baumannii, in the experiment on Staphylococcus aureus, in the experiment with Klebsiella pneumoniae and in the experiment on Escherichia coli was “Average; N=2” throughout.

`O=C(NCc1ccccn1)c1ncc([N+](=O)[O-])[nH]1`: the inhibition result in the experiment with Pseudomonas aeruginosa, in the experiment on Acinetobacter baumannii, in the experiment with Staphylococcus aureus, in the experiment with Klebsiella pneumoniae and in the experiment on Escherichia coli was “Average; N=2” throughout.

Regarding `CC(NC(=O)c1ncc([N+](=O)[O-])[nH]1)c1ccc(F)cc1` (stereo not given), the inhibition entry with Pseudomonas aeruginosa, with Acinetobacter baumannii, with Staphylococcus aureus, in the experiment with Klebsiella pneumoniae and in the experiment on Escherichia coli was “Average; N=2” in each case.

As to `O=C(NC1CCCCC1)c1ncc([N+](=O)[O-])[nH]1`, the inhibition entry with Pseudomonas aeruginosa, with Acinetobacter baumannii, in the experiment on Staphylococcus aureus, in the experiment on Klebsiella pneumoniae and with Escherichia coli was “Average; N=2” each time.

Take `CNC(=O)c1nc([N+](=O)[O-])cn1Cc1ccc(OC(F)(F)F)cc1`: the CC50 in the experiment on HEK293 is recorded as more than 100.

Take `Cc1nc(OCc2ccc(OC(F)(F)F)cc2)c2nc([N+](=O)[O-])cn2c1C`: the CC50 in the experiment with HEK293 is reported as more than 100.

`O=C(NO)c1nc([N+](=O)[O-])cn1Cc1ccc(OC(F)(F)F)cc1` had a CC50 in the experiment with HEK293 of 36.

For `O=C(c1ncc([N+](=O)[O-])[nH]1)N1CCOCC1`, the inhibition result in the experiment with Pseudomonas aeruginosa, with Acinetobacter baumannii, in the experiment on Staphylococcus aureus, in the experiment with Klebsiella pneumoniae and in the experiment on Escherichia coli was “Average; N=2” in each case.

Take `CC(=O)OCCn1c(C)cn2cc([N+](=O)[O-])nc2c1=O`: in the experiment with HEK293, the CC50 is on record as more than 100.

On to `O=C(NCc1ccccc1)c1nc([N+](=O)[O-])c[nH]1`, for which the inhibition entry in the experiment on Pseudomonas aeruginosa, in the experiment on Acinetobacter baumannii, in the experiment with Staphylococcus aureus, in the experiment on Klebsiella pneumoniae and with Escherichia coli was “Average; N=2” throughout.

As to `O=C(NC1CC1)c1ncc([N+](=O)[O-])[nH]1`, the inhibition result in the experiment with Pseudomonas aeruginosa, with Acinetobacter baumannii, in the experiment on Staphylococcus aureus, in the experiment with Klebsiella pneumoniae and in the experiment with Escherichia coli was “Average; N=2” each time.

Take `Cc1[nH]c(=O)c2nc([N+](=O)[O-])cn2c1C`: the CC50 with HEK293 is more than 100.

Regarding `O=C(NCc1ccc(OC(F)(F)F)cc1)c1ncc([N+](=O)[O-])[nH]1`, the inhibition entry in the experiment on Pseudomonas aeruginosa, in the experiment on Acinetobacter baumannii, in the experiment with Staphylococcus aureus, with Klebsiella pneumoniae and with Escherichia coli was “Average; N=2” in each case.

For `Cc1ccc(CCn2cc([N+](=O)[O-])nc2C(N)=O)cc1`, the inhibition result in the experiment with Pseudomonas aeruginosa, with Acinetobacter baumannii, in the experiment on Staphylococcus aureus, in the experiment on Klebsiella pneumoniae and in the experiment on Escherichia coli was “Average; N=2” each time.

For `CC(=O)OCCn1c(-c2ccccc2)cn2cc([N+](=O)[O-])nc2c1=O`, the inhibition result in the experiment with Pseudomonas aeruginosa, in the experiment with Acinetobacter baumannii, with Staphylococcus aureus, with Klebsiella pneumoniae and in the experiment with Escherichia coli was “Average; N=2” in each case.

Turning to `O=C(c1ncc([N+](=O)[O-])[nH]1)N1CCCC1`, the inhibition result in the experiment on Pseudomonas aeruginosa, in the experiment with Acinetobacter baumannii, in the experiment on Staphylococcus aureus, in the experiment with Klebsiella pneumoniae and in the experiment on Escherichia coli was “Average; N=2” in each case.

Consider `O=C(NCCO)c1ncc([N+](=O)[O-])[nH]1`, for which the inhibition result with Pseudomonas aeruginosa, in the experiment on Acinetobacter baumannii, with Staphylococcus aureus, in the experiment with Klebsiella pneumoniae and in the experiment with Escherichia coli was “Average; N=2” each time.

With `CN(CCO)C(=O)c1ncc([N+](=O)[O-])[nH]1`, the inhibition result in the experiment on Pseudomonas aeruginosa, in the experiment on Acinetobacter baumannii, with Staphylococcus aureus, in the experiment on Klebsiella pneumoniae and with Escherichia coli was “Average; N=2” each time.

For `CN(CCOC(=O)c1ncc([N+](=O)[O-])[nH]1)C(=O)c1ncc([N+](=O)[O-])[nH]1`, the inhibition result in the experiment with Pseudomonas aeruginosa, with Acinetobacter baumannii, in the experiment with Staphylococcus aureus, in the experiment with Klebsiella pneumoniae and with Escherichia coli was “Average; N=2” throughout.

Consider `NC(=O)c1ncc([N+](=O)[O-])[nH]1`, for which the inhibition result with Pseudomonas aeruginosa, with Acinetobacter baumannii, in the experiment on Staphylococcus aureus, in the experiment with Klebsiella pneumoniae and with Escherichia coli was “Average; N=2” throughout.

For the molecule `[N-]=[N+]=NCCOc1nc(-c2ccccc2)cn2cc([N+](=O)[O-])nc12`, the inhibition entry in the experiment on Pseudomonas aeruginosa, in the experiment with Acinetobacter baumannii, in the experiment on Staphylococcus aureus, with Klebsiella pneumoniae and in the experiment on Escherichia coli was “Average; N=2” each time.

As to `NC(=O)c1nc([N+](=O)[O-])cn1Cc1ccccn1`, the inhibition result in the experiment with Pseudomonas aeruginosa, with Acinetobacter baumannii, in the experiment on Staphylococcus aureus, in the experiment on Klebsiella pneumoniae and in the experiment with Escherichia coli was “Average; N=2” throughout.

As for `NC(=O)c1nc([N+](=O)[O-])cn1CCc1ccc(OC(F)(F)F)cc1`, the inhibition result in the experiment on Pseudomonas aeruginosa, in the experiment on Acinetobacter baumannii, in the experiment on Staphylococcus aureus, in the experiment on Klebsiella pneumoniae and in the experiment on Escherichia coli was “Average; N=2” each time.

Take `NC(=O)c1nc([N+](=O)[O-])cn1CC1CCCCC1`: the inhibition entry in the experiment on Pseudomonas aeruginosa, in the experiment on Acinetobacter baumannii, in the experiment on Staphylococcus aureus, in the experiment on Klebsiella pneumoniae and in the experiment on Escherichia coli was “Average; N=2” in each case.

Take `CS(=O)(=O)c1ccc(CNC(=O)c2ncc([N+](=O)[O-])[nH]2)cc1`: the inhibition result with Pseudomonas aeruginosa, in the experiment on Acinetobacter baumannii, in the experiment with Staphylococcus aureus, with Klebsiella pneumoniae and in the experiment with Escherichia coli was “Average; N=2” each time.

For the molecule `CNC(=O)c1ncc([N+](=O)[O-])[nH]1`, the inhibition result in the experiment with Pseudomonas aeruginosa, in the experiment with Acinetobacter baumannii, with Staphylococcus aureus, with Klebsiella pneumoniae and in the experiment on Escherichia coli was “Average; N=2” throughout.
